Test results published in patent publication US20250388605A1, “HETEROBIFUNCTIONAL COMPOUNDS AND METHODS OF TREATING DISEASE” (Halda Therapeutics OpCo, Inc., priority 2022, published 2025).

How the values were obtained:
[1] = test system: T-Rex 293 cell line SC3 cells having increased expression of androgen receptor protein due to exposure to doxycycline; test: Cellular growth inhibition, T-Rex 293 SC3 cells with doxycycline (increased androgen receptor expression), CellTiter-Glo; type: cell-based; conditions: T-Rex 293 SC3 cells with 10 ng/mL doxycycline (increased androgen receptor expression), 72 hours, CellTiter-Glo 2.0
How it was run: (§1)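 Growth inhibition is measured in an inducible AR-expressing T-Rex 293 clone, SC3, cultured with or without 10 ng/mL doxycycline in hormone-depleted medium. Test compounds are applied for 72 hours. GI50 values derive from CellTiter-Glo 2.0 signal fitted by four-parameter regression.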

[2] = test system: T-Rex 293 cell line SC3 cells lacking increased expression of androgen receptor protein; test: Cellular growth inhibition, T-Rex 293 SC3 cells without doxycycline (no increased androgen receptor expression), CellTiter-Glo; type: cell-based; conditions: T-Rex 293 SC3 cells not exposed to doxycycline (no increased androgen receptor expression), 72 hours
How it was run: as §1

VCaP cells = test: Cellular growth inhibition assay for VCaP cells, CellTiter-Glo; type: cell-based, human; conditions: 72 hours
How it was run: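 GI50 values come from four-parameter curve fits of luminescence data normalized to a zero baseline. Compound, in medium with 0.5% DMSO, was added one day after plating and left for 72 h before CellTiter-Glo 2.0 addition.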

androgen receptor = molecular target: T1, androgen receptor (Homo sapiens, UniProt P10275); test: Assay for binding affinity to androgen receptor ([3H]methyltrienolone radioligand competition, cell cytosol); conditions: binding to the androgen receptor, 1 nM [3H]methyltrienolone, 24 hr at 4° C.
T1 construct: host or cells: unnamed cells, cytosolic fraction
T1 sequence (P10275 1-920): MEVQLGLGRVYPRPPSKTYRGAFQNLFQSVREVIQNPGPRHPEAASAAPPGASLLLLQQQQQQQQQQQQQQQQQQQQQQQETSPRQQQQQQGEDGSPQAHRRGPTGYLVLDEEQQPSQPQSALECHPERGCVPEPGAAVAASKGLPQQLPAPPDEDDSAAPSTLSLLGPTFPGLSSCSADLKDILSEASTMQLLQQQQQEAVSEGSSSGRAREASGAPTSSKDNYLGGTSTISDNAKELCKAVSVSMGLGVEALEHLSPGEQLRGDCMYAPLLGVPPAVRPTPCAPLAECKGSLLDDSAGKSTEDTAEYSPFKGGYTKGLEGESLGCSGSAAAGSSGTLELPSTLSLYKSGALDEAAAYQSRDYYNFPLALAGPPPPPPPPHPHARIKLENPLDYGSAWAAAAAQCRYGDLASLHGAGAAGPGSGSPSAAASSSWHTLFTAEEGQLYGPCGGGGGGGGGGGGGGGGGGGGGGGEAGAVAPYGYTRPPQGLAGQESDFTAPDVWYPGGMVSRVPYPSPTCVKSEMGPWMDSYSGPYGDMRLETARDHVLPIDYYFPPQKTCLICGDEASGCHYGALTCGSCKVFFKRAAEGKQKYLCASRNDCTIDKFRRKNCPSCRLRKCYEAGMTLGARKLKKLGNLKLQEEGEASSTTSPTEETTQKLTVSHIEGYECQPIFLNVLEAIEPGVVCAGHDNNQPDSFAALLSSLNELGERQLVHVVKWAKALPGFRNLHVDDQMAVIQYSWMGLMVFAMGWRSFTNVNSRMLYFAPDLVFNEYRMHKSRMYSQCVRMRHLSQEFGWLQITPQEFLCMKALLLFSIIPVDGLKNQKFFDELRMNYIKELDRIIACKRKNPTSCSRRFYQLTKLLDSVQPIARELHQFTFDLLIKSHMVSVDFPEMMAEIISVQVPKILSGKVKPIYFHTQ
Method: Fractions of cell cytosol ([…]) were incubated for 24 hr at 4° C. with 1 nM [^3H]methyltrienolone in the absence or presence of the test compound in a buffer containing 25 mM Hepes-Tris (pH 7.4), 1 mM EDTA, 10 mM Na2MoO4, 2 mM DTT, 5 μM triamcinolone acetonide, and 10% glycerol. Nonspecific binding was determined in the presence of […] testosterone. Following incubation, the samples were filtered rapidly under vacuum through glass fiber filters (GF/B, Packard) presoaked with 0.3% PEI and rinsed several times with ice-cold 50 mM Tris-HCl using a 96-sample cell harvester (Unifilter, Packard). The filters were dried then counted for radioactivity in a scintillation counter (Topcount, Packard) using a scintillation cocktail (Microscint 0, Packard). The results are expressed as a percent inhibition of the control radioligand specific binding. The standard reference compound is testosterone, which is tested in each experiment at several concentrations to obtain a competition curve from which its IC50 is calculated.

T47D cells = test: Cellular Growth Inhibition Assay for T47D Cells (CellTiter-Glo); type: cell-based, human; conditions: 72 hours
How it was run: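 GI50 values derive from four-parameter regression of CellTiter-Glo 2.0 luminescence, using zero luminescence as baseline. Human breast cancer T47D cells (3000/well; DMEM, 10% FBS, 0.2 units/mL insulin) were exposed for 72 h to compound dilutions at 0.5% DMSO, with dosing starting 24 h after seeding.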

progesterone receptor = molecular target: T2, progesterone receptor (Homo sapiens, UniProt P06401); test: PR Human Progesterone NHR Binding (Agonist Radioligand) Assay, [3H]progesterone, T47D cytosolic fractions; conditions: 0.5 nM [3H]progesterone, 1 hour at 4° C.
T2 sequence (P06401 679-933 limits assumed): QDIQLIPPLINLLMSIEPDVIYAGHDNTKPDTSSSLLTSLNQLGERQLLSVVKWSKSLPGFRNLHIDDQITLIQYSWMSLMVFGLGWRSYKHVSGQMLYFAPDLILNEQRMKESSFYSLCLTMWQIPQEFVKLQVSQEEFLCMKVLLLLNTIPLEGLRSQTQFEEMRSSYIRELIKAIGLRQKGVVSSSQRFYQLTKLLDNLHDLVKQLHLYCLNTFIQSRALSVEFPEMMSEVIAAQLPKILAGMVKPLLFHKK
Method: Exemplary compounds were tested for ability to bind to the progesterone receptor.
Compounds were tested using the PR Human Progesterone NHR Binding (Agonist Radioligand) Assay, Cerep at Eurofins Discovery using a modified version of the protocol from Sarup et al. (Cancer Res 1988; 48:5071-5078). Briefly, cytosolic fractions of T47D cells were incubated with 0.5 nM [^3H]progesterone for 1 hour at 4° C. in the absence or presence of the test compound. Nonspecific binding was determined in the presence of […] promegestone. Reactions were subjected to scintillation counting. Results are expressed as a percent inhibition of the control radioligand specific binding.

[3] = molecular target: T3, progesterone receptor ligand binding domain (GST-tagged PR LBD) (Homo sapiens, UniProt P06401); test: FP Assay for Binding Affinity to Progesterone Receptor (PolarScreen Progesterone Receptor Competitor Assay Kit); conditions: fluorescence polarization, Fluormone tracer, 2 hours at room temperature
T3 construct: purchased Life Technologies A15905 or a15906
T3 sequence (P06401 679-913 limits assumed): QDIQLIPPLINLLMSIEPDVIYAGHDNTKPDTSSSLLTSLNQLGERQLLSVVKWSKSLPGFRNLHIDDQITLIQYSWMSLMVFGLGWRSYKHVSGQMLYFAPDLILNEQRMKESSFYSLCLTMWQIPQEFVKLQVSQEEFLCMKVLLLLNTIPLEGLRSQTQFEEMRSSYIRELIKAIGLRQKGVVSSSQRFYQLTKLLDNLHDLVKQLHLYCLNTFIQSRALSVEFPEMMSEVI
Method: Exemplary compounds were tested for ability to bind to the progesterone receptor ligand binding domain (LBD).
Compounds were tested using the PolarScreen™ Progesterone Receptor Competitor Assay Kit (Life Technologies Cat #A15905 or a15906), as per the manufacturer's instructions. Briefly, GST-tagged PR LBD, Fluormone tracer, and compound were mixed and incubated for 2 hours at room temperature in the dark. Following incubation, the plates were spun at 3000×g for 30 seconds, then sealed with an optical adhesive cover, and fluorescence polarization was measured using appropriate excitation and emission filters with an EnVision Plate Reader (Perkin Elmer). Compound concentration vs. mP value were plotted in Prism (GraphPad). A four-parameter non-linear regression curve fit was applied to dose-response data to determine the half-maximal inhibitory concentration (IC50) for each test compound.

Row | SMILES | GI50 [1] [nM] | GI50 [2] [nM] | GI50 (VCaP cells; Homo sapiens) [nM] | Ki (androgen receptor) [nM] | GI50 (T47D cells; Homo sapiens) [nM] | Ki (progesterone receptor) [nM] | IC50 [3] [nM] | GI50 (T47D cells) [nM] | GI50 (VCaP cells) [nM]
1 | CCS(=O)(=O)Nc1ccc(Oc2cccc(OCCOC3CCN(c4ccc(C(=O)N[C@H]5C(C)(C)[C@H](Oc6ccc(C#N)c(Cl)c6)C5(C)C)cc4)CC3)c2)c(-c2cn(C)c(=O)c3[nH]ccc23)c1 [Compound I-69, N-((1r, 3r)-3-(3-chloro-4-cyanophenoxy)-2,2,4,4-tetramethylcyclobutyl)-4-(4-(2-(3-(4-(ethylsulfonamido)-2-(6-methyl-7-oxo-6,7-dihydro-1H-pyrrolo[2,3-c]pyridin-4-yl)phenoxy)phenoxy)ethoxy)piperidin-1-yl)benzamide] | < 500 | < 500 | < 500 | < 50 | – | – | – | – | –
2 | CCS(=O)(=O)Nc1ccc(Oc2cccc(OCCOC3CCN(c4cnc(C(=O)N[C@H]5C(C)(C)[C@H](Oc6ccc(C#N)c(Cl)c6)C5(C)C)nc4)CC3)c2)c(-c2cn(C)c(=O)c3[nH]ccc23)c1 [Compound I-73, N-((1r, 3r)-3-(3-chloro-4-cyanophenoxy)-2,2,4,4-tetramethylcyclobutyl)-5-(4-(2-(3-(4-(ethylsulfonamido)-2-(6-methyl-7-oxo-6,7-dihydro-1H-pyrrolo[2,3-c]pyridin-4-yl)phenoxy)phenoxy)ethoxy)piperidin-1-yl)pyrimidine-2-carboxamide] | < 500 | < 500 | < 500 | 50 to 500 | – | – | – | – | –
3 | Cn1cc(-c2cc(C(C)(C)O)ccc2Oc2ccc(N3CC(CC4CCN(c5cnc(C(=O)N[C@H]6C(C)(C)[C@H](Oc7ccc(C#N)c(C(F)(F)F)c7)C6(C)C)cn5)CC4)C3)cc2)c2cc[nH]c2c1=O [Compound I-373] | – | – | – | – | < 500 | 500 to 2500 | – | – | –
4 | Cn1cc(-c2cc(C(C)(C)O)ccc2Oc2cccc(OCCN3CCC34CN(c3ncc(C(=O)N[C@H]5C(C)(C)[C@H](Oc6ccc(C#N)c(Cl)c6)C5(C)C)cn3)C4)c2F)c2cc[nH]c2c1=O [Compound I-222] | < 500 | 500 to 1500 | < 500 | – | 500 to 1500 | – | 500 to 2500 | – | –
5 | CC(C)N(CCN(C)C1CCN(c2ncc(C(=O)N[C@H]3C(C)(C)[C@H](Oc4ccc(C#N)c(Cl)c4)C3(C)C)cn2)CC1)c1cccc(Oc2ccc(C(C)(C)O)cc2-c2cn(C)c(=O)c3[nH]ccc23)c1F [Compound I-226] | < 500 | 500 to 1500 | – | – | – | – | < 50 | > 3000 | 500 to 1500
6 | Cn1cc(-c2cc(C(C)(C)O)ccc2Oc2cccc(OCCN3CC4(C3)CN(c3ncc(C(=O)N[C@H]5C(C)(C)[C@H](Oc6ccc(C#N)c(Cl)c6)C5(C)C)cn3)C4)c2F)c2cc[nH]c2c1=O [Compound I-229] | < 500 | 500 to 1500 | – | – | – | – | 50 to 500 | < 500 | < 500
7 | Cn1cc(-c2cc(C(C)(C)O)ccc2Oc2ccc(OCC3CCN(c4ncc5c(n4)CN([C@H]4C(C)(C)[C@H](Oc6ccc(C#N)c(Cl)c6)C4(C)C)C5=O)CC3)cc2)c2cc[nH]c2c1=O [Compound I-233] | 500 to 1500 | > 3000 | < 500 | – | 500 to 1500 | – | > 2500 | – | –
8 | CCS(=O)(=O)Nc1ccc(Oc2cccc(N(C)CCNC3CCN(c4ncc(C(=O)N[C@H]5C(C)(C)[C@H](Oc6ccc(C#N)c(Cl)c6)C5(C)C)cn4)CC3)c2)c(-c2cn(C)c(=O)c3[nH]ccc23)c1 [Compound I-83] | < 500 | > 3000 | < 500 | – | < 500 | – | 50 to 500 | – | –
9 | CCS(=O)(=O)Nc1ccc(Oc2cccc(OCCOC3CCN(c4ccc(C(=O)N[C@H]5C(C)(C)[C@H](Oc6ccc(C#N)c(Cl)c6)C5(C)C)nc4)CC3)c2)c(-c2cn(C)c(=O)c3[nH]ccc23)c1 [Compound I-72, N-((1r, 3r)-3-(3-chloro-4-cyanophenoxy)-2,2,4,4-tetramethylcyclobutyl)-5-(4-(2-(3-(4-(ethylsulfonamido)-2-(6-methyl-7-oxo-6,7-dihydro-1H-pyrrolo[2,3-c]pyridin-4-yl)phenoxy)phenoxy)ethoxy)piperidin-1-yl)picolinamide] | < 500 | < 500 | < 500 | 50 to 500 | – | – | – | – | –
10 | CCS(=O)(=O)c1ccc(Oc2cccc(CCCC3CCN(c4ncc(C(=O)N[C@H]5C(C)(C)[C@H](Oc6ccc(C#N)c(Cl)c6)C5(C)C)cn4)CC3)c2F)c(-c2cn(C)c(=O)c3[nH]ccc23)c1 [Compound I-245] | < 500 | > 3000 | – | – | – | – | 500 to 2500 | < 500 | 500 to 1500
